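Protocol summary: plate cells (96-well), add compound at 5 concentrations, incubate 48 h, interpolate endpoints linearly. Abbreviation: GI50, concentration required for 50% inhibition of growth.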 Calls of active or inactive are those of the source. Rule as the data show it: active = GI50 up to about 1.1 µM and inactive = higher.
Tests used:
Assay in all cases: inhibition of tumour cell growth, NCI panel, 48 h
786-0 = tested on: 786-0
A549 = tested on: A549
CAKI-1 = tested on: CAKI-1
HCT-116 = tested on: HCT-116
HT-29 = tested on: HT-29
MCF7 = tested on: MCF7
MDA-MB-435 = tested on: MDA-MB-435
NCI-H23 = tested on: NCI-H23
OVCAR-5 = tested on: OVCAR-5
RPMI-8226 = tested on: RPMI-8226
SF-268 = tested on: SF-268
SF-295 = tested on: SF-295
SK-MEL-5 = tested on: SK-MEL-5
SK-OV-3 = tested on: SK-OV-3
SN12C = tested on: SN12C
SW-620 = tested on: SW-620
UO-31 = tested on: UO-31
NCI-H226 = tested on: NCI-H226
RXF 393 = tested on: RXF 393

Measured: GI50

Nc1ncnc2c1nc(O)n2-c1ccccc1
inactive: 786-0 > 100 µM | A549 > 100 µM | CAKI-1 78.9 µM | HCT-116 > 100 µM | HT-29 > 100 µM | MCF7 > 100 µM | MDA-MB-435 > 100 µM | NCI-H23 > 100 µM | OVCAR-5 > 100 µM | RPMI-8226 > 100 µM | SF-268 > 100 µM | SF-295 > 100 µM | SK-MEL-5 > 100 µM | SK-OV-3 > 100 µM | SN12C > 100 µM | SW-620 > 100 µM | UO-31 57.7 µM

O=Cc1c(O)c(C(=O)Nc2ccc3[nH]c(=O)[nH]c3c2)cc2ccccc12
inactive: 786-0 > 100 µM | A549 > 100 µM | CAKI-1 > 100 µM | HCT-116 > 100 µM | HT-29 > 100 µM | NCI-H226 > 100 µM | NCI-H23 > 100 µM | OVCAR-5 > 100 µM | RPMI-8226 > 100 µM | RXF 393 > 100 µM | SF-268 > 100 µM | SF-295 > 100 µM | SK-MEL-5 > 100 µM | SK-OV-3 > 100 µM | SN12C > 100 µM | SW-620 > 100 µM | UO-31 > 100 µM

O=C(O)c1nc2ccccc2nc1Nc1ccc(F)cc1
inactive: 786-0 40.9 µM | A549 33.4 µM | CAKI-1 20.9 µM | HCT-116 30.8 µM | HT-29 42.1 µM | MCF7 29.9 µM | MDA-MB-435 34.8 µM | NCI-H226 23.7 µM | NCI-H23 34 µM | OVCAR-5 56.4 µM | RPMI-8226 23.1 µM | RXF 393 14.5 µM | SF-268 22.9 µM | SF-295 24 µM | SK-MEL-5 21.6 µM | SW-620 38.5 µM | UO-31 43 µM

C=C(C)C12CC3CC(/C(=N/O)C(C1)/C3=N\O)[C@@]2(C)O (some centres undefined)
inactive: 786-0 > 100 µM | A549 > 100 µM | CAKI-1 > 100 µM | HCT-116 > 100 µM | HT-29 > 100 µM | NCI-H226 > 100 µM | NCI-H23 > 100 µM | OVCAR-5 > 100 µM | RPMI-8226 > 100 µM | RXF 393 > 100 µM | SF-268 > 100 µM | SF-295 > 100 µM | SK-MEL-5 > 100 µM | SK-OV-3 > 100 µM | SN12C > 100 µM | SW-620 > 100 µM | UO-31 > 100 µM

COc1cc(C(=O)C/C(CCCC(=O)Nc2ccccc2[N+](=O)[O-])=N/NC(=O)c2cc3ccccc3cc2O)ccc1O
inactive: 786-0 32.4 µM | A549 54.5 µM | CAKI-1 > 68.9 µM | HCT-116 34.4 µM | HT-29 41.9 µM | NCI-H226 > 81.7 µM | NCI-H23 41.4 µM | OVCAR-5 46.3 µM | RPMI-8226 > 46.9 µM | RXF 393 > 71 µM | SF-268 23.8 µM | SF-295 44.4 µM | SK-MEL-5 34.4 µM | SK-OV-3 49.7 µM | SN12C 44 µM | SW-620 46.5 µM | UO-31 13.9 µM

O=C1COc2cc(NC(=S)Nc3ccccc3)ccc2N1
inactive: 786-0 > 100 µM | A549 > 100 µM | CAKI-1 > 100 µM | HCT-116 > 100 µM | HT-29 > 100 µM | NCI-H226 > 100 µM | NCI-H23 > 100 µM | OVCAR-5 > 100 µM | RPMI-8226 > 100 µM | RXF 393 > 100 µM | SF-268 > 100 µM | SF-295 > 100 µM | SK-MEL-5 > 100 µM | SK-OV-3 > 100 µM | SN12C > 100 µM | SW-620 > 100 µM | UO-31 > 100 µM

C/C(=C\CBr)CCC(Br)C(C)(C)Cl (centres undefined)
inactive: 786-0 > 100 µM | A549 > 100 µM | CAKI-1 > 100 µM | HCT-116 > 100 µM | HT-29 > 100 µM | NCI-H226 > 100 µM | NCI-H23 > 100 µM | OVCAR-5 > 100 µM | RPMI-8226 > 100 µM | RXF 393 > 100 µM | SF-268 > 100 µM | SF-295 > 100 µM | SK-MEL-5 > 100 µM | SK-OV-3 > 100 µM | SN12C > 100 µM | SW-620 > 100 µM | UO-31 > 100 µM

Cc1cc(N(CCC#N)CCC#N)ccc1/C=C(\N=[N+]=[N-])C(=O)NC(=O)COc1ccccc1
inactive: 786-0 > 100 µM | A549 > 100 µM | CAKI-1 > 100 µM | HCT-116 > 100 µM | HT-29 > 100 µM | NCI-H226 > 100 µM | NCI-H23 > 100 µM | OVCAR-5 > 100 µM | RPMI-8226 > 100 µM | RXF 393 > 46.3 µM | SF-268 > 100 µM | SF-295 > 61.7 µM | SK-MEL-5 > 100 µM | SK-OV-3 > 100 µM | SN12C > 100 µM | SW-620 > 100 µM | UO-31 > 100 µM

COc1cccc(/C=N\NC(=O)C(C)SC(C)C(=O)N/N=C/c2cccc(OC)c2)c1 (centres undefined)
inactive: 786-0 17.3 µM | A549 14.6 µM | CAKI-1 34.3 µM | HCT-116 18.4 µM | HT-29 > 66.8 µM | NCI-H226 21.2 µM | NCI-H23 23.8 µM | OVCAR-5 53.8 µM | RPMI-8226 32.7 µM | RXF 393 11.1 µM | SF-268 33.4 µM | SF-295 32.2 µM | SK-MEL-5 56.1 µM | SK-OV-3 18.1 µM | SN12C 19.6 µM | SW-620 57.8 µM | UO-31 41 µM

C/C=N\n1c(C)n[nH]c1=O
inactive: 786-0 > 100 µM | A549 > 100 µM | CAKI-1 > 100 µM | HCT-116 > 100 µM | HT-29 > 100 µM | MCF7 > 100 µM | MDA-MB-435 > 100 µM | NCI-H226 > 100 µM | NCI-H23 > 100 µM | OVCAR-5 > 100 µM | RPMI-8226 > 100 µM | RXF 393 > 100 µM | SF-268 > 100 µM | SF-295 > 100 µM | SK-MEL-5 > 100 µM | SN12C > 100 µM | SW-620 > 100 µM | UO-31 > 100 µM

COc1cccc(C23CCCC(C2)N(C)CC3OC(=O)c2ccccc2)c1OC (centres undefined)
inactive: 786-0 32.7 µM | A549 41 µM | CAKI-1 42.4 µM | HCT-116 20 µM | HT-29 13.2 µM | MCF7 27.4 µM | MDA-MB-435 18 µM | NCI-H23 10.7 µM | OVCAR-5 26.4 µM | RPMI-8226 18.6 µM | SF-268 32 µM | SF-295 19.4 µM | SK-MEL-5 14 µM | SK-OV-3 34 µM | SW-620 24.4 µM | UO-31 > 100 µM

COc1ccc(C(c2c(O)c3ccccc3n(C)c2=O)c2c(O)c3ccccc3n(C)c2=O)cc1
inactive: 786-0 28.1 µM | A549 37.5 µM | CAKI-1 38.2 µM | HCT-116 36 µM | HT-29 24.3 µM | NCI-H226 24.5 µM | NCI-H23 24.5 µM | OVCAR-5 32.3 µM | RPMI-8226 46 µM | RXF 393 73.3 µM | SF-268 34.1 µM | SF-295 36.5 µM | SK-MEL-5 20.2 µM | SK-OV-3 58.3 µM | SN12C 66.5 µM | SW-620 57.4 µM | UO-31 36.5 µM
